# Assay results reported in PMC12616515, “Thermostable Bacterial Esterases From Lipase Family 1.5 Degrade Compostable Polyesters PBAT and PBSA” (MicrobiologyOpen, 2025).
# Columns and labels:
# Cl_EstA = molecular target: T1, Cl_EstA (Clostridium botulinum, UniProt A5I055)
# T1 construct: gene lipA
# Tl_Est64 = molecular target: T2, Tl_Est64 (Thermosyntropha lipolytica, UniProt A0A1M5LUW5); experiment: pNP release, absorbance […] nm; format: biochemical
# T2 construct: gene SAMN02745221_00755
# T2 sequence (A0A1M5LUW5 29-416): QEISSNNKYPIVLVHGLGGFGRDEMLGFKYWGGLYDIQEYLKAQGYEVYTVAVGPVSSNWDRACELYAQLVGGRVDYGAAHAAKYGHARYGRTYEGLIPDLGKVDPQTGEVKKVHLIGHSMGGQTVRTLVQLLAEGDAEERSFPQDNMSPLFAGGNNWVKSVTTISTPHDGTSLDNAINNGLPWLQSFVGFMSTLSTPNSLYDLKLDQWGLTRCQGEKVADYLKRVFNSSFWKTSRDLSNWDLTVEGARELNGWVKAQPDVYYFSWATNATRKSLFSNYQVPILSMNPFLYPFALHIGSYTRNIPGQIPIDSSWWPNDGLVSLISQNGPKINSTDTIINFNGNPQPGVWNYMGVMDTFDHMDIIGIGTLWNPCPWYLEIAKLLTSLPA
# Dt_Est = molecular target: T3, Dt_Est (Desulfurispora thermophila, UniProt Z9TUI6NBX6); experiment: pNP release, absorbance […] nm; format: biochemical
# T3 sequence (Z9TUI6NBX6 32-423): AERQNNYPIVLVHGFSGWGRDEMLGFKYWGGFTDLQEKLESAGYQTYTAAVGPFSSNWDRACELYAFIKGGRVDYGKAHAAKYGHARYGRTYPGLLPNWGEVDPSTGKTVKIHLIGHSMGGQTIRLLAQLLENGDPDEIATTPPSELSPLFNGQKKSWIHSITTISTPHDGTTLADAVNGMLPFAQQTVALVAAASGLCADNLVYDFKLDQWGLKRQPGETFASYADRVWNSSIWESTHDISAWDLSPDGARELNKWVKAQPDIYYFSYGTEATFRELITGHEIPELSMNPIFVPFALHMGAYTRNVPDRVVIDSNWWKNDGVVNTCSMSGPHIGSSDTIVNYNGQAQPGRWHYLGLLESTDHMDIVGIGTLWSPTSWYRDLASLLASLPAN
# T1 sequence (A5I055 1-480): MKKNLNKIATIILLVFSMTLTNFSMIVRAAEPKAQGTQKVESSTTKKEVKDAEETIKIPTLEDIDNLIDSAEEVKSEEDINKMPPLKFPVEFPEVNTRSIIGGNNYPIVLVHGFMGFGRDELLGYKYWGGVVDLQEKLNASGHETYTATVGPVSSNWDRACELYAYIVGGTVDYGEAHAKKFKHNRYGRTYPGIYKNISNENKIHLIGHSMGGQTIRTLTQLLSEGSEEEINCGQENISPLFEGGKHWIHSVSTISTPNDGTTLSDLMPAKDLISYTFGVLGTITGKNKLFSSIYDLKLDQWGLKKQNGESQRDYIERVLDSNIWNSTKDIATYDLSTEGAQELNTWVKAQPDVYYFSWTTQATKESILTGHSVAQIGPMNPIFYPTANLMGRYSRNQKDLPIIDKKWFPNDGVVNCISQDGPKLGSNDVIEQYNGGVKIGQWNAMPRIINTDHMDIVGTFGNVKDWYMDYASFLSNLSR
SMILES,"pNP release, absorbance 405 nm (Tl_Est64)",further results
CC(=O)Oc1ccc([N+](=O)[O-])cc1 [pNP acetate],–,"pNP release, absorbance 405 nm (Cl_EstA): except Cl_EstA, which had the best activity with pNP acetate"
CCCC(=O)Oc1ccc([N+](=O)[O-])cc1 [pNP butyrate],Tl_Est64 showed the highest overall activity with the substrates pNP butyrate and pNP valerate,–
CCCCCCCC(=O)Oc1ccc([N+](=O)[O-])cc1 [pNP octanoate],–,"pNP release, absorbance 405 nm (Dt_Est): Dt_Est showed the highest activity with pNP octanoate"
CCCCC(=O)Oc1ccc([N+](=O)[O-])cc1 [pNP valerate],Tl_Est64 showed the highest overall activity with the substrates pNP butyrate and pNP valerate,–
